From PubChem BioAssay (NCI) come the findings set out here.

Test systems include LOX IMVI melanoma; SN12C renal; UACC-257 melanoma; MALME-3M melanoma; A498 renal; OVCAR-4 ovarian; SNB-19 CNS; NCI/ADR-RES ovarian; NCI-H522 lung; 786-0 renal.
What all share (assay): growth of human tumour cells (NCI), 48 h

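Tested at 5 concentrations; 48 h exposure; 96-well plates; endpoints linearly interpolated, else capped at highest concentration. The concentration for full growth arrest is given as TGI.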

Turning to `CC1C/C(=C\c2ccc(O)c(O)c2)C(=O)/C(=C/c2ccc(O)c(O)c2)C1` (configuration not stated), the TGI in the assay with LOX IMVI melanoma came to 23.4 µM; in the assay on SN12C renal it was 20.4 µM; with UACC-257 melanoma, 28.7 µM; with MALME-3M melanoma it was 25.1 µM; in the assay with A498 renal it was 12.8 µM; with OVCAR-4 ovarian, 34.1 µM. For the same compound, the TGI in the assay with SNB-19 CNS is 22.5 µM; in the assay with NCI/ADR-RES ovarian it was 57.7 µM; in the assay on NCI-H522 lung, 3.58 µM.

In the case of `COc1ccc(C2=C(N)c3cc(OC)ccc3C2=O)cc1`, the TGI in the assay with 786-0 renal, in the assay with LOX IMVI melanoma, in the assay with SN12C renal, in the assay with UACC-257 melanoma, with MALME-3M melanoma and in the assay on A498 renal was more than 100 µM throughout. Besides, the TGI with OVCAR-4 ovarian, in the assay with SNB-19 CNS, in the assay with NCI/ADR-RES ovarian and in the assay with NCI-H522 lung was more than 100 µM throughout.

Turning to `O=C(Nc1ccccc1C(=O)O)C(=Cc1ccccc1O)NC(=O)c1ccccc1`, the TGI with 786-0 renal, with LOX IMVI melanoma, in the assay with SN12C renal, in the assay with UACC-257 melanoma, with MALME-3M melanoma and with A498 renal was more than 100 µM each time. The TGI in the assay with SNB-19 CNS, with NCI/ADR-RES ovarian and in the assay with NCI-H522 lung was more than 100 µM throughout.

For the compound `CCOC(=O)CCC1(C(=O)O[C@@H]2C[C@H](C)CC[C@H]2C(C)C)CCCCC1=O` (some centres not stated), the TGI with 786-0 renal was more than 100 µM; in the assay on LOX IMVI melanoma, more than 100 µM; in the assay on SN12C renal, more than 100 µM; in the assay with UACC-257 melanoma, 60 µM; in the assay on MALME-3M melanoma, more than 100 µM; in the assay on A498 renal it was more than 100 µM. The TGI with OVCAR-4 ovarian, in the assay on SNB-19 CNS, in the assay on NCI/ADR-RES ovarian and in the assay with NCI-H522 lung was more than 100 µM each time.

In the case of `CCCCCC(=O)OCC1(CO)C/C(=C/CC(C(C)C)C(C)C)C(=O)O1` (configuration not stated), the TGI is more than 75 µM in the assay with 786-0 renal; 20.5 µM in the assay with LOX IMVI melanoma; more than 75 µM in the assay with SN12C renal; more than 75 µM in the assay on UACC-257 melanoma; 65.6 µM with MALME-3M melanoma; more than 75 µM with A498 renal. Besides, the TGI is more than 75 µM in the assay on OVCAR-4 ovarian, more than 75 µM in the assay on SNB-19 CNS, more than 75 µM with NCI/ADR-RES ovarian and 27.7 µM in the assay on NCI-H522 lung.

Take `CC1=NNC(N)=N/C1=C\C(Sc1ccc(Cl)cc1)c1ccc(Cl)cc1Cl` (configuration not stated): the TGI was 75.9 µM in the assay on 786-0 renal; more than 49.4 µM in the assay with LOX IMVI melanoma; 62.4 µM with SN12C renal; 39.9 µM in the assay with UACC-257 melanoma; 28.8 µM with MALME-3M melanoma; 42.8 µM in the assay with A498 renal. The TGI stood at 44.6 µM in the assay on OVCAR-4 ovarian, 32.8 µM in the assay on SNB-19 CNS, 39 µM with NCI/ADR-RES ovarian and 18.6 µM with NCI-H522 lung.

Turning to `O=C(O)CCC(NC(=O)/C(=C/c1ccccc1)NC(=O)c1ccccc1)C(=O)O` (configuration not stated), the TGI in the assay with 786-0 renal, in the assay with LOX IMVI melanoma, in the assay on SN12C renal, in the assay on UACC-257 melanoma, with MALME-3M melanoma and with A498 renal was more than 100 µM in each case. For the same compound, the TGI with OVCAR-4 ovarian, with SNB-19 CNS, in the assay on NCI/ADR-RES ovarian and in the assay with NCI-H522 lung was more than 100 µM throughout.

Consider `O=c1[nH]c(=O)c2c([nH]1)[nH]c1ccccc12`, for which the TGI with 786-0 renal, with LOX IMVI melanoma, in the assay with SN12C renal, in the assay on UACC-257 melanoma, with MALME-3M melanoma and in the assay on A498 renal was more than 100 µM throughout. Further, the TGI with OVCAR-4 ovarian, in the assay with SNB-19 CNS, with NCI/ADR-RES ovarian and with NCI-H522 lung was more than 100 µM throughout.

As for `C[C@@H]1CC(=O)[C@@]2(C)[C@](O)(CCC3O[C@]32C)[C@@]12CC(c1ccoc1)OC2=O` (some centres not stated), the TGI with 786-0 renal, with LOX IMVI melanoma, with UACC-257 melanoma, in the assay on MALME-3M melanoma, in the assay on A498 renal and in the assay with OVCAR-4 ovarian was more than 100 µM each time. Further, the TGI in the assay with SNB-19 CNS, in the assay on NCI/ADR-RES ovarian and in the assay with NCI-H522 lung was more than 100 µM throughout.

`CCOC(=O)N1c2c(c3ccccc3n2C(=O)OCC)C(=O)C(OC)N1C(=O)OCC` (configuration not stated): the TGI in the assay on 786-0 renal is more than 100 µM; with LOX IMVI melanoma it was 38.8 µM; in the assay on SN12C renal, more than 100 µM; with UACC-257 melanoma it was more than 100 µM; in the assay on MALME-3M melanoma, 69.8 µM; in the assay with A498 renal, 88.6 µM. The TGI in the assay on OVCAR-4 ovarian is more than 100 µM; with SNB-19 CNS it was more than 100 µM; in the assay on NCI/ADR-RES ovarian, 62.1 µM; in the assay on NCI-H522 lung, 41.2 µM.

For `CCN(CC)CCC1(C(=O)OC)SCCc2ccc(C)cc21` (configuration not stated), the TGI in the assay with 786-0 renal, in the assay with LOX IMVI melanoma, in the assay with SN12C renal, in the assay with UACC-257 melanoma, with MALME-3M melanoma and in the assay on A498 renal was more than 100 µM each time. In addition, the TGI with OVCAR-4 ovarian, in the assay with SNB-19 CNS, in the assay with NCI/ADR-RES ovarian and in the assay with NCI-H522 lung was more than 100 µM in each case.

Regarding `NC(=O)c1nnc2c(F)cccc2c1N`, the TGI in the assay on 786-0 renal, with LOX IMVI melanoma, in the assay on SN12C renal, in the assay on UACC-257 melanoma, in the assay on MALME-3M melanoma and with A498 renal was more than 100 µM each time. The TGI with OVCAR-4 ovarian, with SNB-19 CNS, in the assay on NCI/ADR-RES ovarian and with NCI-H522 lung was more than 100 µM each time.

With `S=C1NNC(=S)NN1`, the TGI in the assay with 786-0 renal was more than 1 µM; with LOX IMVI melanoma it was 0.328 µM; with SN12C renal it was 0.354 µM; with UACC-257 melanoma, more than 1 µM; with MALME-3M melanoma, more than 1 µM; in the assay with A498 renal, more than 1 µM. In addition, the TGI in the assay on OVCAR-4 ovarian, in the assay on SNB-19 CNS, in the assay with NCI/ADR-RES ovarian and in the assay on NCI-H522 lung was more than 1 µM throughout.
